# Laboratory results as given in US12691104B2, “Compositions containing nicotinamide and vitamin B6 and methods of using such compositions for treating sarcopenia and frailty” (SOCIETE DES PRODUITS NESTLE S.A., priority 2020, dated 2026).
# System: Human primary myoblasts
# Test: Myogenic amplification and commitment of muscle stem cells (Pax7/MyoD staining, image quantification)
# Assay type: cell-based
# Conditions: donors 1 and 2 pooled, dose response, 96 hours, control DMSO 1%; for proportion of MyoD+ cells, fold change compared to the control condition: FIG. 1B/2B
# Method: Human Skeletal Muscle Myoblasts were purchased from Lonza (https://bioscience.lonza.com). These cells were isolated from the upper arm or leg muscle tissue of normal donors and used after the second passage. Several donors were tested to ensure cell viability and purity before selecting the final donors, which are a person (refer thereafter as Donor 1), a person (refer thereafter as Donor 2) and a person (refer thereafter as Donor 3). Human primary myoblasts were seeded in 384 well plates at a density of 1′000 cells per well in skeletal muscle growth medium (SKM-M, AMSbio). For treatment, compounds were directly added to the myoblast cultures 16 hours after initial plating. All cultures were then grown for 96 hours. Cells were stained for Pax7 and MyoD expression using antibodies directed against Pax7 and MyoD and counterstained with Hoechst 33342 to visualize cell nuclei. Pax7+ cells are defined as cells that express Pax7 regardless of MyoD expression. […] Image acquisition was performed using the ImageXpress (Molecular Devices) platform. Custom module analysis based on Multi-Wavelength Cell Scoring of the MetaXpress software was used for quantification. *, **, ***, **** indicates difference from the control, One-way ANOVA, with p<0.05, p<0.01, p<0.001, p<0.0001, respectively. Data are presented as Mean+/— SEM. Human primary myoblasts from different donors (donor 1, donor 2 or donor 3) were seeded in 384 well plates at a density of 1′000 cells per well in skeletal muscle growth medium (SKM-M, AMSbio). For treatment, compounds were directly added to the myoblast cultures 16 hours after initial plating. All cultures were then grown for 96 hours. Cells were stained for Pax7 and MyoD expression using antibodies directed against Pax7 and MyoD and counterstained with Hoechst 33342 to visualize cell nuclei. Pax7+ cells are defined as cells that express Pax7 regardless of MyoD expression. […] Custom module analysis based on Multi-Wavelength Cell Scoring of the MetaXpress software was used for quantification. […]
Structure (SMILES),"proportion of Pax7+ cells, fold change compared to the control condition (FIG. 1A/2A)","proportion of MyoD+ cells, fold change compared to the control condition"
NC(=O)c1cccnc1 [Nicotinamide],increasing the proportion of both amplifying (Pax7+) and differentiating (MyoD+) cells in a dose dependent manner,increasing the proportion of both amplifying (Pax7+) and differentiating (MyoD+) cells in a dose dependent manner
Cc1ncc(CO)c(CO)c1O [Pyridoxine],,increasing the proportion of differentiating (MyoD+) cells in a dose dependent manner
